Reference: patent US20170066717A1, “NEW PHENYLAZETIDINECARBOXYLATE OR -CARBOXAMIDE COMPOUNDS” (INVENTIVA, priority 2014, published 2017)

Assays:
[1] = test system: dopaminergic neurons of primary culture of rat embryo mesencephalon treated with MPP+; assay: Neuroprotection in primary culture of rat embryo mesencephalon treated with MPP+ (count of tyrosine hydroxylase expressing cells); type: cell-based; conditions: recombinant human BDNF 10 ng/mL = 100%, 2 days with MPP+
Description: Another in vitro test was carried out with the compounds according to the invention, for the purpose of verifying that the molecules indeed have the expected neuroprotective effect in vitro.
The compounds were tested in a model of primary culture of rat embryo mesencephalon treated with 1-methyl-4-phenylpyridinium (MPP+), which is the active metabolite of 1-methyl-4-phenyl-1,2,3,6-tetrahydropyridine (MPTP). MPP+ enters into dopananergic neurons via the dopamine transporter and causes the death of these dopaminergic neurons. The following protocol was used.
Gestating female rats (15 days of gestation) were euthanized and the rat embryos were removed. The mesencephalons were removed. The tissue was then dissociated mechanically and by using trypsin. The cells collected after centrifugation were distributed into 96-well plates and left to stand for 5 days. The culture conditions made it possible to obtain a cell layer composed of neurons (dopaminergic and others) and astrocytes. On the 6th day, the cells were optionally treated with MPP+ in the presence or absence of test compound. After 2 days of incubation, the cells were fixed and various cell labellings were carried out; staining of the nuclei with the Hoechst fluorescent label and immunolabelling of tyrosine hydroxylase. The cells expressing tyrosine hydroxylase were counted using an image analyzer coupled to an optical microscope.
Recombinant human BDNF trophic factor (10 ng/mL) was used as reference. The activities of the compounds are given as percentages of activity relative to the BDNF reference, the activity of which is arbitrarily defined as being equal to 100%.

NURR-1/RXRα = biological target: T1, NURR-1/RXRα (Homo sapiens, UniProt P19793); assay: Transactivation test, NURR-1-Gal4/RXRα, luciferase reporter in Cos-7 cells; type: cell-based; conditions: for Emax: COS-7, induction level relative to reference XCT0135908 at 2×10^−5 M (=100%), read-out: hNurr1_RXRaFL Emax (%); for EC50: Cos-7 cells, NURR-1-Gal4/RXRα, luciferase reporter, read-out: hNurr1_RXRaFL EC50
T1 construct: expressed in transfected cells; host or cells: Cos-7 cells
T1 sequence (P19793 whole entry, the tested form may be a part): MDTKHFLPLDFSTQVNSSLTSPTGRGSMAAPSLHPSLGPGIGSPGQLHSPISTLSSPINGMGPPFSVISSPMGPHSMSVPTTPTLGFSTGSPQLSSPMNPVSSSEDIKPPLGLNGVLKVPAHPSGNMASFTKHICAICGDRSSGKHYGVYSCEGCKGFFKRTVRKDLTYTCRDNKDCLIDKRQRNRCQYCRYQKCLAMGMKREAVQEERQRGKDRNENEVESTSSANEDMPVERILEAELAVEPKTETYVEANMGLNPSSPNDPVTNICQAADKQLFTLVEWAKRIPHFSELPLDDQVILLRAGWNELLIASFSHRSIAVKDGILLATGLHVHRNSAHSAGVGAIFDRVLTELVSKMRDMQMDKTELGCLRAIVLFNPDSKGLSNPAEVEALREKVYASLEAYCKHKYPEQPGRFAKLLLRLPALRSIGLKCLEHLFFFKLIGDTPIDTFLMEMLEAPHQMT
T1 sequence (P43354 whole entry partner, the tested form may be a part): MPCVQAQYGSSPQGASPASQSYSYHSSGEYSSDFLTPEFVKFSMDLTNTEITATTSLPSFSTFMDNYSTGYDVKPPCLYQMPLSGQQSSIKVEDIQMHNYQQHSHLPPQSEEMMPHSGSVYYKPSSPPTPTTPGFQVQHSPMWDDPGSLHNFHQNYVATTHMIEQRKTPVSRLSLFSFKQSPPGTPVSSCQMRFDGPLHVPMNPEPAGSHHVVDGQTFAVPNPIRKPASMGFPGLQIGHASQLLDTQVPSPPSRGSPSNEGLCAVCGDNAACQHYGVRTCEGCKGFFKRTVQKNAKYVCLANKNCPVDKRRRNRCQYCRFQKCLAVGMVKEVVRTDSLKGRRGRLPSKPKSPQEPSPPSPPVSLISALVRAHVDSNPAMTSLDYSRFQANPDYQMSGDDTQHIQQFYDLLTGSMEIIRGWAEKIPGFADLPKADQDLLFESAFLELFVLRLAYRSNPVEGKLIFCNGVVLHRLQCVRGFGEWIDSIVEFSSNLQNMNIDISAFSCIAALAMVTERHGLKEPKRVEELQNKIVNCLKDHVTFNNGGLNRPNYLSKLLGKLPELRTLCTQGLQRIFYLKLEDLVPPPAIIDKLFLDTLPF
T1 sequence (P04386 1-147 partner limits assumed): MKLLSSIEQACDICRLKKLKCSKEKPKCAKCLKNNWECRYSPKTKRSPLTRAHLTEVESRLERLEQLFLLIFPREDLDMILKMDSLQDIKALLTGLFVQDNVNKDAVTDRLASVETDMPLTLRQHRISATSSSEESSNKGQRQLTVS

NURR-1/RXRγ = biological target: T2, NURR-1/RXRγ (Homo sapiens, UniProt P48443); assay: Transactivation test, NURR-1-Gal4/RXRγ, luciferase reporter in Cos-7 cells; type: cell-based; conditions: for Emax: COS-7, induction level relative to reference XCT0135908 at 2×10^−5 M (=100%), read-out: hNurr1_RXRgFL Emax (%); for EC50: Cos-7 cells, NURR-1-Gal4/RXRγ, luciferase reporter, read-out: hNurr1_RXRgFL EC50
T2 construct: expressed in transfected cells; host or cells: Cos-7 cells
T2 sequence (P48443 whole entry, the tested form may be a part): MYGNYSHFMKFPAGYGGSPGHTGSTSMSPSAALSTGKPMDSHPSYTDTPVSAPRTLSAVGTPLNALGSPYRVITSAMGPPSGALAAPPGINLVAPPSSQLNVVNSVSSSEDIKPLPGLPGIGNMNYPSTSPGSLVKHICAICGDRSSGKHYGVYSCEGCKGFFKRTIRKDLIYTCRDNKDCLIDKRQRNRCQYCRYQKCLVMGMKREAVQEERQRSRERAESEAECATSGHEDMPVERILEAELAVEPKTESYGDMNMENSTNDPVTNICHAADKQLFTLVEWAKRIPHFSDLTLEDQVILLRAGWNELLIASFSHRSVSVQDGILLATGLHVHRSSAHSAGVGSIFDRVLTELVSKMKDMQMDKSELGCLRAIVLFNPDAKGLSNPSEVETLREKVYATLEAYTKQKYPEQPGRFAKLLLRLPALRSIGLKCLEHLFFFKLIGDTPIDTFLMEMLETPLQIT
T2 sequence (P43354 whole entry partner, the tested form may be a part): as the sequence (P43354 whole entry partner, the tested form may be a part) above
T2 sequence (P04386 1-147 partner limits assumed): as the sequence (P04386 1-147 partner limits assumed) above

Cc1cn(-c2cccc(N3CC(C(=O)NCCCO)C3)c2)c2ccc(C(F)(F)F)cc12 [Example 154, N-(3-hydroxypropyl)-1-[3-[3-methyl-5-(trifluoromethyl)indol-1-yl]phenyl]azetidine-3-carboxamide]
percentage of activity relative to the BDNF reference ([1]; compound 1 μM): 67% | percentage of activity relative to the BDNF reference ([1]; compound 10 μM): 105% | Emax (NURR-1/RXRα): 111% | EC50 (NURR-1/RXRα): < 1 nM | Emax (NURR-1/RXRγ): 104% | EC50 (NURR-1/RXRγ): 3 nM

CC(C)Cc1cn(-c2cccc(N3CC(C(=O)O)C3)c2)c2ccc(C(F)(F)F)cc12 [Example 125, 1-[3-[3-isobutyl-5-(trifluoromethyl)indol-1-yl]phenyl]azetidine-3-carboxylic acid]
percentage of activity relative to the BDNF reference ([1]; compound 1 μM): 86% | percentage of activity relative to the BDNF reference ([1]; compound 10 μM): 107% | Emax (NURR-1/RXRα): 152% | EC50 (NURR-1/RXRα): 4 nM | Emax (NURR-1/RXRγ): 162% | EC50 (NURR-1/RXRγ): 2 nM

CN(C)S(=O)(=O)c1cn(-c2cccc(N3CC(C(=O)O)C3)c2)c2ccc(C(F)(F)F)cc12 [Example 136, 1-[3-[3-(dimethylsulfamoyl)-5-(trifluoromethyl)indol-1-yl]phenyl]azetidine-3-carboxylic acid]
percentage of activity relative to the BDNF reference ([1]; compound 1 μM): 49% | percentage of activity relative to the BDNF reference ([1]; compound 10 μM): 86% | Emax (NURR-1/RXRα): 128% | EC50 (NURR-1/RXRα): 22 nM | Emax (NURR-1/RXRγ): 121% | EC50 (NURR-1/RXRγ): 55 nM

CC1(C)CNc2c(cc(C(F)(F)F)cc2-c2cccc(N3CC(C(=O)O)C3)c2)O1 [Example 61, 1-[3-[2,2-dimethyl-7-(trifluoromethyl)-3,4 dihydro-1,4-benzoxazin-5-yl]phenyl]azetidine-3-carboxylic acid]
percentage of activity relative to the BDNF reference ([1]; compound 1 μM): 85% | percentage of activity relative to the BDNF reference ([1]; compound 10 μM): 106% | Emax (NURR-1/RXRα): 91% | EC50 (NURR-1/RXRα): 8 nM | Emax (NURR-1/RXRγ): 107% | EC50 (NURR-1/RXRγ): 15 nM

CCOc1ccc(C(F)(F)F)cc1-c1cccc(N2CC(C(=O)O)C2)c1 [Example 109, 1-[3-[2-ethoxy-5-(trifluoromethyl)phenyl]phenyl]azetidine-3-carboxylic acid]
percentage of activity relative to the BDNF reference ([1]; compound 1 μM): 145% | percentage of activity relative to the BDNF reference ([1]; compound 10 μM): 147% | Emax (NURR-1/RXRα): 86% | EC50 (NURR-1/RXRα): 39 nM | Emax (NURR-1/RXRγ): 112% | EC50 (NURR-1/RXRγ): 67 nM

O=C(O)C1CN(c2cccc(-c3cc(C(F)(F)F)ccc3OCC3CCCCC3)c2)C1 [Example 104, 1-[3-[2-(cyclohenxylemthoxy)-5-(trifluoromethyl)phenyl]phenyl]azetidine-3-carboxylic acid]
percentage of activity relative to the BDNF reference ([1]; compound 1 μM): 109% | Emax (NURR-1/RXRα): 40% | EC50 (NURR-1/RXRα): 50 nM | Emax (NURR-1/RXRγ): 42% | EC50 (NURR-1/RXRγ): 43 nM

Cc1cc(-c2cccc(N3CC(C(=O)O)C3)c2)cc(C(F)(F)F)c1 [Example 12, 1-[3-[3-methyl-5-(trifluoromethyl)phenyl]phenyl]azetidine-carboxylic acid]
percentage of activity relative to the BDNF reference ([1]; compound 1 μM): 64% | percentage of activity relative to the BDNF reference ([1]; compound 10 μM): 74% | Emax (NURR-1/RXRα): 122% | EC50 (NURR-1/RXRα): 46 nM | Emax (NURR-1/RXRγ): 129% | EC50 (NURR-1/RXRγ): 48 nM

CC1(C)Cc2cc(Cl)ccc2N(c2cccc(N3CC(C(=O)[O-])C3)c2)C1.[Na+] [Example 243, sodium 1-[3-(6-chloro-3,3-dimethyl-2,4-dihydroquinolin-1-yl)phenyl]azetidine-3-carboxylate]
melting point: 70 to 80 °C | Emax (NURR-1/RXRα): 83% | EC50 (NURR-1/RXRα): 58 nM | Emax (NURR-1/RXRγ): 89% | EC50 (NURR-1/RXRγ): 34 nM

O=C(O)C1CN(c2cccc(-c3cc(C(F)(F)F)cc4c3NCCC4)c2)C1 [Example 201, 1-[3-[6-(trofluromethyl)-1,2,3,4-tetrahydroquinolin-8-yl]phenyl]azetidine-3-carboxylic acid]
melting point: 75 to 81 °C | Emax (NURR-1/RXRα): 99% | EC50 (NURR-1/RXRα): 284 nM | Emax (NURR-1/RXRγ): 65% | EC50 (NURR-1/RXRγ): 760 nM

O=C(O)C1CN(c2cccc(N3c4ccc(C(F)(F)F)cc4C4CC43)c2)C1 (centres unmarked) [Example 143, 1-[3-[5-(trifluoromethyl)-1a,6b-dihydro-1H-cyclopropa[b]indol-2-yl]phenyl]azetidine-3-carboxylic acid]
melting point: 67 to 71 °C | Emax (NURR-1/RXRα): 97% | EC50 (NURR-1/RXRα): 18 nM | EC50 (NURR-1/RXRγ): 45 nM

CC1(C)CNc2c(cc(OC(F)(F)F)cc2-c2cccc(N3CC(C(=O)O)C3)c2)O1 [Example 188, 1-[3-[2.2-dimethyl-7-(trifluoromethoxy)-3,4-dihydro-1,4-benzoxazin-5-yl]phenyl]azetidine-3-carboxylic acid]
melting point: 67 to 74 °C | Emax (NURR-1/RXRα): 100% | EC50 (NURR-1/RXRα): 7 nM | Emax (NURR-1/RXRγ): 98% | EC50 (NURR-1/RXRγ): 9 nM

CC1(C)CN(c2cccc(N3CC(C(=O)[O-])C3)c2)c2cnc(C(F)(F)F)cc2O1.[Na+] [Example 242, sodium 1-[3-[2,2-dimethyl-7-(trofluoromethyl)-3H-pyrido[4,3-b][1,4]ozaxin-4-yl]phenyl]azetidine-3-carboxylate]
melting point: 149 to 155 °C | Emax (NURR-1/RXRα): 84% | EC50 (NURR-1/RXRα): 227 nM | Emax (NURR-1/RXRγ): 76% | EC50 (NURR-1/RXRγ): 299 nM

CCc1cc2c(cc1-c1cccc(N3CC(C(=O)O)C3)c1)C(C)(C)CCC2(C)C [Example 86, 1-[3-(7-ethyl-1,1,4,4,-tetramethyltetralin-6-yl)phenyl]azetidine-3-carboxylic acid]
melting point: 78 to 88 °C | Emax (NURR-1/RXRα): 107% | EC50 (NURR-1/RXRα): 6 nM | Emax (NURR-1/RXRγ): 97% | EC50 (NURR-1/RXRγ): 16 nM

CC(C)c1ccc2c(c1)OC(C)(C)CCN2c1cccc(N2CC(C(=O)O)C2)c1 [Example 234, 1-[3-(8-isopropyl-2,2-dimethyl-3,4-dihydro-1,5-benzoxazepin-5-yl)phenyl]azetidine-3-carboxylic acid]
melting point: 64 to 68 °C | Emax (NURR-1/RXRα): 95% | EC50 (NURR-1/RXRα): 1710 nM | Emax (NURR-1/RXRγ): 81% | EC50 (NURR-1/RXRγ): 2260 nM

CCc1noc2cc(C(C)C)cc(-c3cccc(N4CC(C(=O)O)C4)c3)c12 [Example 72, 1-[3-(3-ethyl-6-isopropy;-1,2-benzoxazol-4-yl)phenyl]azetidine-3-carboxylic acid]
melting point: 63 to 69 °C | Emax (NURR-1/RXRα): 97% | EC50 (NURR-1/RXRα): 7 nM | Emax (NURR-1/RXRγ): 112% | EC50 (NURR-1/RXRγ): 40 nM

CC1Nc2c(cc(C(F)(F)F)cc2-c2cccc(N3CC(C(=O)O)C3)c2)OC1(C)C (centres unmarked) [Example 197, 1-[3-[2,2,3-trimethyl-7-(trifluoromethyl)-3,4-dihydro-1,4-benzoxazin-5-yl]phenyl]azetidine-3-carboxylic acid]
melting point: 83 to 95 °C | Emax (NURR-1/RXRα): 55% | EC50 (NURR-1/RXRα): 14 nM | Emax (NURR-1/RXRγ): 50% | EC50 (NURR-1/RXRγ): 34 nM

CC(C)c1ccc2c(c1)OCCN2c1cccc(N2CC(C(=O)O)C2)c1 [Example 232, 1-[3-(7-isopropyl-2,3-dihydro-1,4-benzoxazin-4-yl)phenyl]azetidine-3-carboxylic acid]
melting point: 48 to 51 °C | Emax (NURR-1/RXRα): 97% | EC50 (NURR-1/RXRα): 386 nM | Emax (NURR-1/RXRγ): 99% | EC50 (NURR-1/RXRγ): 465 nM

CCC1(CC)CN(c2cccc(N3CC(C(=O)O)C3)c2)c2ccc(C(F)(F)F)cc21 [Example 255, 1-[3-[3,3-diethyl-5-(trifluoromethyl)indolin-1-yl]phenyl]azetidine-3-carboxylic acid]
melting point: 83 °C | Emax (NURR-1/RXRα): 104% | EC50 (NURR-1/RXRα): 18 nM | Emax (NURR-1/RXRγ): 103% | EC50 (NURR-1/RXRγ): 44 nM

CC1(C)CN(c2cccc(N3CC(C(=O)O)C3)c2)c2ccccc2O1 [Example 119, 1-[3-(2,2-dimethyl-3H-1,4-benzoxazin-4-yl)phenyl]azetidine-3-carboxylic acid]
melting point: 59 to 64 °C | Emax (NURR-1/RXRα): 101% | EC50 (NURR-1/RXRα): 238 nM | Emax (NURR-1/RXRγ): 94% | EC50 (NURR-1/RXRγ): 512 nM

CC1(C)CCC2C(C1)c1cc(C(F)(F)F)ccc1N2c1cccc(N2CC(C(=O)O)C2)c1 (single isomer, unassigned; isomer 1) [Example 145-1, 1-[3-[3,3-dimethyl-6-(trifluoromethyl)-2,4,4a,9a-tetrahydro-1H-carbazol-9-yl]phenyl]azetidine-3-carboxylic acid (isomer 1)]
melting point: 84 to 91 °C | Emax (NURR-1/RXRα): 82% | EC50 (NURR-1/RXRα): 37 nM | Emax (NURR-1/RXRγ): 90% | EC50 (NURR-1/RXRγ): 103 nM

Cc1cn(-c2cccc(N3CC(C(=O)NS(C)(=O)=O)C3)c2)c2ccc(C(F)(F)F)cc12 [Example 150, N-methylsulfonyl-1-[3-[3-methyl-5-(trifluoromethyl)indol-1-yl]phenyl]azetidine-3-carboxamide]
melting point: 99 to 109 °C | Emax (NURR-1/RXRα): 89% | EC50 (NURR-1/RXRα): 4 nM | Emax (NURR-1/RXRγ): 79% | EC50 (NURR-1/RXRγ): 4 nM
